From US20170306042A1, “IMMUNOGENIC MODULATION BY ENDOCRINE DEPRIVATION THERAPY IMPROVES SENSITIVITY OF TUMOR CELLS TO IMMUNE MEDIATED LYSIS” (The United States of America, as represented by the …, priority 2014, published 2017)
“Also recorded” adds a separate entry of the source.

Columns and labels:
[1] = system: LNCaP cells; experiment: CEA-specific CTL lysis assay, LNCaP targets; assay type: cell-based, human; conditions: 10 μM, 48 hours, E:T 30:1, P<0.0001
Excerpt: To evaluate the importance of DAPK1, DAPK1 siRNA was used to reduce the expression of DAPK1.

[2] = system: MDA MB 231 (ER−AR−) cells; experiment: CEA-specific CTL lysis assay, MDA MB 231 targets; assay type: cell-based, human; conditions: 10 μM, E:T 30:1, vs vehicle
Method: (§1) The HLA-A2-restricted CEA-specific CTL recognizes the CEA peptide epitope […] (SEQ ID NO: 1) (CAP-1). […] The percentage of tumor lysis was calculated as follows: % tumor lysis=[(experimental cpm−spontaneous cpm)/(maximum cpm−spontaneous cpm)]×100.
OPG expression was inhibited in MDA MB 231 cells using siRNA duplexes targeting OPG sequences and control siRNA duplexes (Origene, Rockville, Md.). MDA-MB-231 cells were transfected with OPG or control siRNA according to the manufacturer's instructions. […] Forty-eight hours post siRNA transfection, the MDA MB 231 cells were also used as target cells in CEA-specific CTL and TRAIL-mediated lysis assays as described.
(§2) These cells were then used as target cells for CTL-mediated killing assays utilizing CEA-specific CTLs.

[3] = system: TRAMP-C2 mouse prostate carcinomas; conditions: in vitro (Ardiani et al. 2013); cited from earlier work
[4] = system: BT549 (ER−AR+) cells; experiment: CEA-specific CTL lysis assay, BT549 targets; assay type: cell-based, human; conditions: 10 μM, E:T 30:1, vs vehicle, P<0.01
Method: as §1

[5] = system: ZR75-1 (ER+AR+) cells; experiment: CEA-specific CTL lysis assay, ZR75-1 targets; assay type: cell-based, human; conditions: 10 μM, E:T 30:1, vs vehicle
Method: as §1, §2

[6] = system: LNCaP cells; experiment: PSA-specific CD8+ T-cell killing, LNCaP targets; conditions: 10 μM, 48 hours, E:T 30:1, P<0.01
Method: (§5) At specific time points, cells were harvested and counted. Equal numbers of effector target cells from all treatment were plated with respective cytotoxic T-cells.

[7] = system: NAIP; experiment: NAIP immunohistochemistry in PC-3 xenografts in nude mice; assay type: in vivo; conditions: 10 mg/day, 7 days
Excerpt: (§3) To examine the reduced expression of NAIP in vivo, either LNCaP or PC-3 cells were transplanted into […] nude mice (Charles River, Wilmington, Mass.) (s.c. in the right flank with 5×10^6 LNCaP or PC-3 prostate tumor cells). […] After 7 days of treatment, tumors were subjected to immunohistochemistry staining to detect the presence and intensity of NAIP expression. Specifically, NAIP expression was detected via immunohistochemistry using a rabbit polyclonal antibody to NAIP (Novus Bio, Littleton, Colo.) according to the manufacturer's instructions. Entire slides were digitally scanned by an Aperio ScanScope CS system and analyzed by Aperio ImageScope Viewer software (Aperio Technologies Inc., Vista, Calif.). Statistical analysis was performed using 3-7 murine tumors, each prepared as a complete stained tumor section. Positive tumor regions were determined using the Positive Pixel Count v9 algorithm. Negative controls included omission of primary antibody with PBS and matched rabbit isotype antibody. In all cases, necrotic areas of tumor were excluded from analysis.

[8] = system: BT549 (ER−AR+) cells; experiment: Tumor cell proliferation, BT549; assay type: cell-based, human; conditions: 10 μM; 48 or 72 hours; P<0.01 vs vehicle; to a greater degree than ZR75-1
Method: At the indicated time points, cells were harvested and the number of viable cells was determined by trypan blue exclusion.

[9] = system: LNCaP control-shRNA cells; experiment: CEA-specific CTL lysis assay, LNCaP control-shRNA targets; conditions: 10 μM, 48 hours, E:T 30:1, P<0.05
Method: as §5

[10] = system: PSA; experiment: RT-PCR of PSA mRNA in LNCaP cells; assay type: cell-based, human; conditions: 10 μM, 48 hours, P<0.0001
[11] = system: PC-3 cells; experiment: MUC1-specific CTL lysis assay, PC-3 targets; assay type: cell-based, human; conditions: 10 μM, 48 hours, E:T 30:1, vs vehicle
Method: as §5

[12] = system: BT549 cells; conditions: 10 μM, 48 hours
Method: (§6) After 48 hours, cells were harvested and stained with the following antibodies: HLA A2-PE-Cy7, MUC-1-FITC, CD54-BV421, CD95-FITC (BD Biosciences, San Jose, Calif.), CEA-APC (Miltenyi Biotec, Auburn, Calif.), TRAIL receptor 1 and TRAIL receptor 2 (R & D Systems, Minneapolis, Minn.). LIVE/DEAD Fixable Violet Dead Cell Stain (Life Technologies, Grand Island, N.Y.) was used to determine cell viability. Cells were incubated with the antibodies for 30 min at 4° C., acquired on a FACS Verse flow cytometer (Becton Dickinson, Franklin Lakes, N.J.), and analyzed using FlowJo software (TreeStar, Inc., Ashland, Oreg.).

[13] = system: MDA MB 231 cells; conditions: 10 μM, 48 hours
Method: as §6

[14] = system: prostate cancer; conditions: reported clinical trials; cited from earlier work
[15] = system: NAIP; experiment: NAIP immunohistochemistry in LNCaP xenografts in nude mice; assay type: in vivo; conditions: 10 mg/day, 7 days
Excerpt: as §3

[16] = system: LNCaP control-shRNA (AR+, HLA-A2) cells; conditions: 10 μM; P<0.01
[17] = system: LNCaP/AR(cs) cells; experiment: Cell proliferation and viability, LNCaP/AR(cs); assay type: cell-based, human
[18] = system: PC-3 (AR−, HLA-A24) cells; experiment: Cell proliferation and viability by trypan blue exclusion, PC-3; assay type: cell-based, human; conditions: 10 μM
Method: (§4) Cells were harvested 24, 48, or 72 h after exposure, and the total number of adherent viable cells was determined by trypan blue exclusion. Viability was confirmed by 7AAD staining.

[19] = system: LNCaP (AR+, HLA-A2) cells; experiment: Cell proliferation and viability by trypan blue exclusion, LNCaP; assay type: cell-based, human; conditions: 10 μM
Method: as §4

[20] = trypan blue exclusion after 3 days of drug exposure

Substance: enzalutamide
- sensitivity to CEA-specific CD8+ T-cell killing [1]: significantly enhanced the sensitivity
- sensitivity to CEA-specific CTL-mediated lysis [2]: capable of increasing the sensitivity
- sensitivity to gp70-specific CTL killing [3]: improve tumor cells' sensitivity
- sensitivity to CEA-specific CTL-mediated lysis [4]: significantly improved their sensitivity
- sensitivity to CEA-specific CTL-mediated lysis [5]: significantly enhanced their sensitivity
- sensitivity to PSA-specific T-cell killing [6]: significantly improved their sensitivity
- NAIP expression in PC-3 tumors vs untreated [7]: did not mediate significant changes in NAIP expression
- proliferation of BT549 cells [8]: significantly inhibited the proliferation
- sensitivity to CEA-specific CTL-mediated lysis [9]: significantly enhanced the sensitivity
- reduction in levels of PSA mRNA [10]: 5.5 fold
- sensitivity to MUC1-specific CTL-mediated lysis [11]: neither enzalutamide nor abiraterone improved PC-3 cells' sensitivity; also recorded: did not improve the sensitivity
- cell-surface markers with increased expression ([12]; BT549 (ER−AR+)): upregulated the expression of ICAM-1 as well as Trail receptors 1 and 2 and the tumor associated antigen CEA
- CEA mean fluorescence intensity ([12]; BT549): 3443
- CEA percent positivity ([12]; BT549): 15.3%
- Fas mean fluorescence intensity ([12]; BT549): 566
- Fas percent positivity ([12]; BT549): 15.8%
- HLA A2 mean fluorescence intensity ([12]; BT549): 2532
- HLA A2 percent positivity ([12]; BT549): 87.6%
- ICAM-1 mean fluorescence intensity ([12]; BT549): 6239
- ICAM-1 percent positivity ([12]; BT549): 26.1%
- MUC-1 mean fluorescence intensity ([12]; BT549): 930
- MUC-1 percent positivity ([12]; BT549): 25.5%
- Trail R1 mean fluorescence intensity ([12]; BT549): 562
- Trail R1 percent positivity ([12]; BT549): 23.6%
- cell-surface markers with increased expression ([13]; MDA MB 231 (ER−AR−)): upregulated CEA, ICAM-1 and Trail receptors 1/2
- CEA mean fluorescence intensity ([13]; MDA MB 231): 626
- CEA percent positivity ([13]; MDA MB 231): 9.7%
- Fas mean fluorescence intensity ([13]; MDA MB 231): 375
- Fas percent positivity ([13]; MDA MB 231): 9.0%
- HLA A2 mean fluorescence intensity ([13]; MDA MB 231): 21175
- HLA A2 percent positivity ([13]; MDA MB 231): 96.4%
- ICAM-1 mean fluorescence intensity ([13]; MDA MB 231): 7254
- ICAM-1 percent positivity ([13]; MDA MB 231): 95.3%
- MUC-1 mean fluorescence intensity ([13]; MDA MB 231): 503
- Trail R1 mean fluorescence intensity ([13]; MDA MB 231): 1125
- Trail R1 percent positivity ([13]; MDA MB 231): 19.2%
- Trail R2 mean fluorescence intensity ([13]; MDA MB 231): 1516
- prostate cancer patients who did not respond and continued to have rising PSA levels [14]: more than 30%
- NAIP staining in LNCaP tumors vs untreated mice ([15]; immunohistochemistry): much less intense staining
- decrease of overall population of tumor cells expressing NAIP ([15]; LNCaP xenografts, P<0.01): 1.5 fold
- increase in tumor area that did not express NAIP ([15]; LNCaP xenografts, P<0.01): 2.2 fold
- proliferation of LNCaP control-shRNA [16]: significantly inhibited the proliferation
- proliferation of LNCaP/AR(cs) cells ([17]; 10 μM): did not inhibit the proliferation
- inhibition of growth of LNCaP/AR(cs) cells ([17]; 30 μM): 50%
- viability of LNCaP/AR(cs) cells ([17]; 30 μM): no effect on the cells' viability
- viability of PC-3 cells [18, 20]: Neither enzalutamide nor abiraterone affected the viability
- proliferation of PC-3 cells ([18]; vs vehicle (DMSO)): did not inhibit the proliferation
- viability of LNCaP cells [19, 20]: Neither enzalutamide nor abiraterone affected the viability
- growth / proliferation of LNCaP cells ([19]; vs vehicle (DMSO), P<0.01): significantly inhibited the growth
